In paper PMC10056348, “Photocaged Histone Deacetylase Inhibitors as Prodrugs in Targeted Cancer Therapy” (Pharmaceuticals, 2023):
Blank lines part the entries; values can stand above or below the molecule they belong to.

What was measured:
[1] = Photo-uncaging efficiency (HPLC after irradiation at 365 nm); assay type: physicochemical; settings: 10 min
Method: Photolysis (photo-uncaging) of photocaged HDACi prodrugs was performed at room temperature using a UVP CL-1000 Crosslinker (Analytik Jena GmbH, Jena, Germany) equipped with five UV-A tubes (F8T5/BL368; λmax = 365 nm; Analytik Jena GmbH, Jena, Germany). Hereafter, this entire experimental set-up will be referred to as the “UV reactor”.
For the photo-uncaging efficiency testing, 10 µL of a 1.0 mM DMSO solution of the respective compound was irradiated for 10 min using the UV reactor described above. Subsequently, 90 µL acetonitrile was added, and the samples were analyzed via HPLC. The amount of photo-cleaved HDACi was determined by comparison with a five-point calibration curve of the respective parent inhibitor, using HPLC/UV detection at an appropriate wavelength (area under the curve; area mAu*min).
2. Photouncaging Experiments
Photolysis (photouncaging) of photocaged HDACi prodrugs was performed at room temperature using an UVP CL-1000 Crosslinker (Analytik Jena GmbH, Jena, Germany) equipped with five UV-A tubes (F8T5/BL368; λmax = 365 nm; Analytik Jena GmbH, Jena, Germany). Hereafter, this entire experimental set-up will be referred to as the "UV-reactor".
For the deprotection experiments 10 µL of a 1.0 mM DMSO-solution of the respective compound were irradiated for 10 min using the UV-reactor described above. Subsequently, 90 µL acetonitrile were added and the samples were analyzed via HPLC. The amount of photo-cleaved HDACi was determined by comparison with a five-point calibration curve of the respective parent inhibitor using HPLC/UV detection at an appropriate wavelength (area under the curve; area mAu*min).
Figure S5. Calibration curve of DDK-137 (I).

rodent cells = system: rodent cells; design: method as in PMID 26603496; settings: cited from earlier work
[2] = design: method as in PMID 26603496; settings: cited from earlier work
[3] = system: cisplatin-resistant Cal27CisR cells; design: method as in PMID 31762274; settings: cited from earlier work
[4] = system: human squamous carcinoma cell line Cal27; design: method as in PMID 31762274; settings: cited from earlier work
[5] = system: human ovarian cancer cell line A2780; design: method as in PMID 31762274; settings: cited from earlier work

- melting point: 159 to 161 °C
- behaviour under treatment with light ([1]; DMSO): decomposed
- concentration of photo-released parent inhibitor after irradiation ([1]; initial concentration 100 µM): not detected
SMILES: COc1cc(COC(=O)Nc2ccccc2NC(=O)c2ccc(CN(CC(=O)NCc3ccccc3)C(=O)c3ccc(N(C)C)cc3)cc2)c([N+](=O)[O-])cc1OC [pc-II, 4,5-Dimethoxy-2-nitrobenzyl-{2-[4-({N-[2-(benzylamino)-2-oxoethyl]-4-(dimethylamino)benzamido}methyl)benzamido]phenyl}carbamate]
- yield of photo-released parent inhibitor ([1]; DMSO, HPLC with calibration curve): did not release the parent HDACi II in significant quantities

SMILES: Cc1[nH]c2ccccc2c1CCNCc1ccc(/C=C/C(=O)NO)cc1 [panobinostat]
- chromosomal aberrations in rodent cells (rodent cells): provoke chromosomal aberrations
- mutagenic activity in the Ames test [2]: mutagenic activity

SMILES: CN(C)c1ccc(C(=O)N(CC(=O)NCc2ccccc2)Cc2ccc(C(=O)Nc3ccccc3N)cc2)cc1 [II, N-{4-[(2-aminophenyl)-carbamoyl]-benzyl}-N-[2-(benzylamino)-2-oxoethyl]-4-(dimethylamino)-benzamide]
- reversal of cisplatin resistance [3]: capable of reversing cisplatin resistance
- antiproliferative effects in Cal27 [4]: promising antiproliferative effects
- antiproliferative effects in A2780 [5]: promising antiproliferative effects

SMILES: O=C(CCCCCCC(=O)Nc1ccccc1)NO [Vorinostat]
- chromosomal aberrations in rodent cells (rodent cells): provoke chromosomal aberrations
- mutagenic activity in the Ames test [2]: mutagenic activity

SMILES: O=C(/C=C/c1cccc(S(=O)(=O)Nc2ccccc2)c1)NO [belinostat]
- chromosomal aberrations in rodent cells (rodent cells): provoke chromosomal aberrations
- mutagenic activity in the Ames test [2]: mutagenic activity
